Literature values in patent publication US7446204B2, “Amino substituted aryloxybenzylpiperidine derivatives” (H. Lundbeck A/S, priority 2004, dated 2008).
Where two headings read alike, the source gives them in different places.

Columns and labels:
[1] = target: T1, MCH1 receptor (Cavia porcellus, UniProt H0VKT7); conditions: guinea pig maternal-separation vocalization; Borowsky et al., Nature Medicine 2002
T1 construct: host or cells: living guinea pigs (endogenous receptor)

[2] = target: T2, MCH1 receptor (Rattus norvegicus, UniProt P97639); conditions: rat social interaction; Borowsky et al., Nature Medicine 2002
T2 construct: host or cells: living rats (endogenous receptor)

[3] = target: T2, MCH1 receptor; conditions: rat forced-swim; Borowsky et al., Nature Medicine 2002

T2 sequence (P97639 whole entry): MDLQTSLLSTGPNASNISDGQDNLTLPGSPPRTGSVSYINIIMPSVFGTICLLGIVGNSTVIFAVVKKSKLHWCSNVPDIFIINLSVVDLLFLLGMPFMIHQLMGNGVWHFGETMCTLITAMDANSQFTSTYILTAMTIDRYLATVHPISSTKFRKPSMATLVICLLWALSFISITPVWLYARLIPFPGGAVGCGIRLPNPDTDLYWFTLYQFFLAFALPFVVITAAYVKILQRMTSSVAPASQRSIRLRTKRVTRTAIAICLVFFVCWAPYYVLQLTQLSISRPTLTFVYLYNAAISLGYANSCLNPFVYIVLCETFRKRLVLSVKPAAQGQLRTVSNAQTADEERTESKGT
T1 sequence (H0VKT7 1-355): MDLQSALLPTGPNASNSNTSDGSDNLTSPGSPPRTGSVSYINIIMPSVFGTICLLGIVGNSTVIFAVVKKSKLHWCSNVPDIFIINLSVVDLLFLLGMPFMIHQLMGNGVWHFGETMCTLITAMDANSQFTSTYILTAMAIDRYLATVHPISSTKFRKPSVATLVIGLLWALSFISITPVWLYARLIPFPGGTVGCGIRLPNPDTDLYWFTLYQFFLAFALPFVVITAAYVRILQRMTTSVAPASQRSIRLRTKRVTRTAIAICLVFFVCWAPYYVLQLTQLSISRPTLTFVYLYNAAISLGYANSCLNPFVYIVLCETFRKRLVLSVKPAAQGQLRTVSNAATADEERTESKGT

COCC1=C(C(=O)OC)[C@H](c2ccc(F)c(F)c2)N(C(=O)NCCCN2CCC(c3cccc(NC(C)=O)c3)CC2)C(=O)N1 [SNAP-7941]
profile in behavioral model of depression and/or anxiety [1]: profile similar to clinically used anti-depressants and anxiolytics
profile in behavioral model of depression and/or anxiety [2]: profile similar to clinically used anti-depressants and anxiolytics
profile in behavioral model of depression and/or anxiety [3]: profile similar to clinically used anti-depressants and anxiolytics
